Source: US20220125765A1, “PHARMACEUTICAL COMBINATIONS COMPRISING MEBENDAZOLE AND A STRONG OR MODERATE CYP1A2 INHIBITOR” (ZEPHAPHARM LTD, priority 2019, published 2022)
Read-outs that look alike come from different tables or passages of the source.

Experiments:
NBXF IMR-32 = test: 2D monolayer CellTiter-Blue viability, neuroblastoma IMR-32; format: cell-based; settings: 72 h
Protocol: (§1) Seventeen compounds, including mebendazole (Batch no. […] Efficacy of compounds was assessed using CellTiter-Blue® Cell Viability Assay. Anti-tumor activity is expressed as absolute and relative IC50 and IC70 values, calculated by non-linear regression analysis.

SXFS RH-30 = test: 2D monolayer CellTiter-Blue viability, soft tissue sarcoma RH-30; format: cell-based; settings: 72 h
Protocol: as §1

NBXF KELLY = test: 2D monolayer CellTiter-Blue viability, neuroblastoma KELLY; format: cell-based; settings: 72 h
Protocol: as §1

RXF 2282L = test: 2D monolayer CellTiter-Blue viability, renal cancer RXF 2282L; format: cell-based; settings: for Test/Control (%) at Drug Concentration: 72 h
Protocol: (§2) Mebendazole was tested in vitro across a panel of 12 tumor cell lines of ovarian and renal cancer by using a 2D monolayer assay. […] OVXF 899L and RXF 486L are P-gp expressing, multidrug resistant cell lines.
(§3) Anti-tumor activity is expressed as absolute and relative IC50/70 values, calculated by 4-parameter non-linear curve fit.

[1] = target: T1, human OATP1B3 transporter (Homo sapiens, UniProt Q9NPD5); test: Uptake into OATP1B3 and empty vector transfected HEK293 cells; format: in vitro ADME; settings: for Uptake rate Mean: 2 min; for Uptake ratio: OATP1B3 vs control
T1 construct: expressed in transfected cells; host or cells: HEK293 (transient transfection)
T1 sequence (Q9NPD5 1-702): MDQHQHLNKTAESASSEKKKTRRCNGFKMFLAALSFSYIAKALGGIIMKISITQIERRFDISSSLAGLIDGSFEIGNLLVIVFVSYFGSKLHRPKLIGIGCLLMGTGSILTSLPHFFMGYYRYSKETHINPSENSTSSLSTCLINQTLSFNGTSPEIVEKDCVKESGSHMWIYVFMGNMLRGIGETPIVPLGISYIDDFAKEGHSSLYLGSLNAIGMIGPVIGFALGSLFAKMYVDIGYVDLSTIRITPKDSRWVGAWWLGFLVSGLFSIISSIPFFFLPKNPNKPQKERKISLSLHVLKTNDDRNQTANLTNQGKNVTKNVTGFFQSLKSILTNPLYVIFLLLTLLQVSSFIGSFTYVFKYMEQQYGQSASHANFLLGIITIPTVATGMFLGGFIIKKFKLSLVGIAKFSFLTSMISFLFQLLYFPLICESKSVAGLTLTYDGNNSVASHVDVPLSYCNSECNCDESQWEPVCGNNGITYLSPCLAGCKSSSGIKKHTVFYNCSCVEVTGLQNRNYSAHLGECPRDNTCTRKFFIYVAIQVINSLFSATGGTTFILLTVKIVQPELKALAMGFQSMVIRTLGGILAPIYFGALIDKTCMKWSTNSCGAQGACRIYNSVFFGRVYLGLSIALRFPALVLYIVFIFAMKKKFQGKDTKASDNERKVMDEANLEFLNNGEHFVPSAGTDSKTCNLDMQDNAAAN
Protocol: Test compound (at 1 and 10 μM) was incubated with both SLC transporter-expressing HEK293 cells and control (empty vector) HEK293 cells for 2 min.

OVCAR-5 = test: 2D monolayer CellTiter-Blue viability, ovarian cancer OVCAR-5; format: cell-based; settings: for IC50: Homo sapiens; for Test/Control (%) at Drug Concentration: 72 h
Protocol: as §2, §3

CYP3A4 = CYP3A4 (Homo sapiens, UniProt P08684); test: Cytochrome P450 reaction phenotyping, recombinant CYP3A4 (Bactosomes)
Sequence of CYP3A4 (P08684 whole entry, canonical isoform): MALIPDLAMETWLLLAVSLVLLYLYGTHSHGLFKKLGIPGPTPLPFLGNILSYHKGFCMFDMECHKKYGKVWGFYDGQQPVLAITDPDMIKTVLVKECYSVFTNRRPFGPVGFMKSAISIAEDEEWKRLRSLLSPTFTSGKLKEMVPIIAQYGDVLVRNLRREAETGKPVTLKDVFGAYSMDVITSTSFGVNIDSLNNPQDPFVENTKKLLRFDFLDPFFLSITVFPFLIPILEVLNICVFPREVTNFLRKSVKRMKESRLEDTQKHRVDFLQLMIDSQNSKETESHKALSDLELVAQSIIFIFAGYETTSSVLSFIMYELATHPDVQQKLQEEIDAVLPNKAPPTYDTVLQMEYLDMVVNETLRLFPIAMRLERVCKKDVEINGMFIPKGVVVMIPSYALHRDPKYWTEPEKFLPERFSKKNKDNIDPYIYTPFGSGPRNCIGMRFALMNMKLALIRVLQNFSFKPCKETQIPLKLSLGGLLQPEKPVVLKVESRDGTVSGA
Protocol: Incubations were also performed using control Bactosomes™ (no P450 enzymes present) to reveal any non-enzymatic degradation. Control compounds known to be metabolised specifically by each P450 isoform were included. All incubations were performed singularly for each test compound.
Incubations were also performed using control Bactosomes™ (no P450 enzymes present) to reveal any non-enzymatic degradation. Control compounds known to be metabolised specifically by each P450 isoform were included. All incubations were performed singularly for each test compound. […] The reactions were stopped by transferring an aliquot of incubate to quench solvent at the appropriate time points, in a 1:3 ratio. The termination plates were centrifuged at 3,000 rpm for 20 min at 4° C. to precipitate the protein.

COC(=O)Nc1nc2ccc(C(=O)c3ccccc3)cc2[nH]1 [Mebendazole, methyl N-(6-benzoyl-1H-benzimidazol-2-yl)carbamate]
Test/Control (%) at Drug Concentration (NBXF IMR-32; IMR-32, 1.0E+00 μM): 1%
Test/Control (%) at Drug Concentration (NBXF IMR-32; IMR-32, 1.0E+01 μM): 0%
Test/Control (%) at Drug Concentration (NBXF IMR-32; IMR-32, 1.0E+02 μM): −2%
Test/Control (%) at Drug Concentration (NBXF IMR-32; IMR-32, 1.0E−01 μM): 81%
Test/Control (%) at Drug Concentration (NBXF IMR-32; IMR-32, 1.0E−02 μM): 95%
Test/Control (%) at Drug Concentration (NBXF IMR-32; IMR-32, 3.2E+00 μM): 1%
Test/Control (%) at Drug Concentration (NBXF IMR-32; IMR-32, 3.2E+01 μM): −1%
Test/Control (%) at Drug Concentration (NBXF IMR-32; IMR-32, 3.2E−01 μM): 10%
Test/Control (%) at Drug Concentration (NBXF IMR-32; IMR-32, 3.2E−02 μM): 94%
Test/Control (%) at Drug Concentration (NBXF IMR-32; IMR-32, 3.2E−03 μM): 97%
Test/Control (%) at Drug Concentration (SXFS RH-30; RH-30, 1.0E+00 μM): 19%
Test/Control (%) at Drug Concentration (SXFS RH-30; RH-30, 1.0E+01 μM): 20%
Test/Control (%) at Drug Concentration (SXFS RH-30; RH-30, 1.0E+02 μM): 5%
Test/Control (%) at Drug Concentration (SXFS RH-30; RH-30, 1.0E−01 μM): 89%
Test/Control (%) at Drug Concentration (SXFS RH-30; RH-30, 1.0E−02 μM): 104%
Test/Control (%) at Drug Concentration (SXFS RH-30; RH-30, 3.2E+00 μM): 21%
Test/Control (%) at Drug Concentration (SXFS RH-30; RH-30, 3.2E+01 μM): 13%
Test/Control (%) at Drug Concentration (SXFS RH-30; RH-30, 3.2E−01 μM): 20%
Test/Control (%) at Drug Concentration (SXFS RH-30; RH-30, 3.2E−02 μM): 95%
Test/Control (%) at Drug Concentration (SXFS RH-30; RH-30, 3.2E−03 μM): 111%
Test/Control (%) at Drug Concentration (NBXF KELLY; 1.0E+00 μM): 6%
Test/Control (%) at Drug Concentration (NBXF KELLY; 1.0E+01 μM): −1%
Test/Control (%) at Drug Concentration (NBXF KELLY; 1.0E+02 μM): −1%
Test/Control (%) at Drug Concentration (NBXF KELLY; 1.0E−01 μM): 91%
Test/Control (%) at Drug Concentration (NBXF KELLY; 1.0E−02 μM): 99%
Test/Control (%) at Drug Concentration (NBXF KELLY; 3.2E+00 μM): −1%
Test/Control (%) at Drug Concentration (NBXF KELLY; 3.2E+01 μM): −1%
Test/Control (%) at Drug Concentration (NBXF KELLY; 3.2E−01 μM): 75%
Test/Control (%) at Drug Concentration (NBXF KELLY; 3.2E−02 μM): 99%
Test/Control (%) at Drug Concentration (NBXF KELLY; 3.2E−03 μM): 106%
Test/Control (%) at Drug Concentration (RXF 2282L; RXF 2282, 1.0E+00 μM): 71%
Test/Control (%) at Drug Concentration (RXF 2282L; RXF 2282, 1.0E−01 μM): 83%
Test/Control (%) at Drug Concentration (RXF 2282L; RXF 2282, 1.0E−02 μM): 84%
Test/Control (%) at Drug Concentration (RXF 2282L; RXF 2282, 1.0E−03 μM): 88%
Test/Control (%) at Drug Concentration (RXF 2282L; RXF 2282, 1.0E−04 μM): 108%
Test/Control (%) at Drug Concentration (RXF 2282L; RXF 2282, 3.2E+00 μM): 57%
Test/Control (%) at Drug Concentration (RXF 2282L; RXF 2282, 3.2E−01 μM): 77%
Test/Control (%) at Drug Concentration (RXF 2282L; RXF 2282, 3.2E−02 μM): 86%
Test/Control (%) at Drug Concentration (RXF 2282L; RXF 2282, 3.2E−03 μM): 89%
Test/Control (%) at Drug Concentration (RXF 2282L; RXF 2282, 3.2E−04 μM): 92%
Abs. IC70 (RXF 2282L; RXF 2282, 72 h): >3200 nM
Rel. IC70 (RXF 2282L; RXF 2282, 72 h): >3200 nM
Bot. (%) (RXF 2282L; RXF 2282, 72 h, curve fit): 0%
Top (%) (RXF 2282L; RXF 2282, 72 h, curve fit): 102%
IC50 (RXF 2282L; RXF 2282, 72 h, read-out: Abs. IC50): > 3200 nM
IC50 (RXF 2282L; RXF 2282, 72 h, read-out: Rel. IC50): > 3200 nM
Uptake rate Mean ([1]; 1 μM, OATP1B3 HEK293 cells): 56.6 pmol/mg
Uptake ratio ([1]; 1 μM): 1.1
Uptake rate Mean ([1]; 1 μM, control (empty vector) HEK293 cells): 50.1 pmol/mg
Uptake rate Mean ([1]; 10 μM, OATP1B3 HEK293 cells): 466 pmol/mg
Uptake ratio ([1]; 10 μM): 1.1
Uptake rate Mean ([1]; 10 μM, control (empty vector) HEK293 cells): 414 pmol/mg
substrate of the human OATP1B3 transporter ([1]; 1 and 10 μM): not a substrate
IC50 (OVCAR-5; OVCAR-5, 72 h, read-out: Abs. IC50): 865 nM
IC50 (OVCAR-5; OVCAR-5, 72 h, read-out: Rel. IC50): 732 nM
Test/Control (%) at Drug Concentration (OVCAR-5; OVCAR-5, 1.0E+00 μM): 42%
Test/Control (%) at Drug Concentration (OVCAR-5; OVCAR-5, 1.0E−01 μM): 90%
Test/Control (%) at Drug Concentration (OVCAR-5; OVCAR-5, 1.0E−02 μM): 102%
Test/Control (%) at Drug Concentration (OVCAR-5; OVCAR-5, 1.0E−03 μM): 103%
Test/Control (%) at Drug Concentration (OVCAR-5; OVCAR-5, 1.0E−04 μM): 102%
Test/Control (%) at Drug Concentration (OVCAR-5; OVCAR-5, 3.2E+00 μM): 22%
Test/Control (%) at Drug Concentration (OVCAR-5; OVCAR-5, 3.2E−01 μM): 91%
Test/Control (%) at Drug Concentration (OVCAR-5; OVCAR-5, 3.2E−02 μM): 95%
Test/Control (%) at Drug Concentration (OVCAR-5; OVCAR-5, 3.2E−03 μM): 92%
Test/Control (%) at Drug Concentration (OVCAR-5; OVCAR-5, 3.2E−04 μM): 96%
Abs. IC70 (OVCAR-5; OVCAR-5, 72 h): 1480 nM
Rel. IC70 (OVCAR-5; OVCAR-5, 72 h): 995 nM
Bot. (%) (OVCAR-5; OVCAR-5, 72 h, curve fit): 20%
Top (%) (OVCAR-5; OVCAR-5, 72 h, curve fit): 97%
Compound Remaining (% of 0 min) (CYP3A4; CYP3A4, 5 μM, 0 min): 100 % of 0 min
Compound Remaining (% of 0 min) (CYP3A4; CYP3A4, 5 μM, 5 min): 95.1 % of 0 min
Compound Remaining (% of 0 min) (CYP3A4; CYP3A4, 5 μM, 15 min): 85.4 % of 0 min
Compound Remaining (% of 0 min) (CYP3A4; CYP3A4, 5 μM, 30 min): 105 % of 0 min
Compound Remaining (% of 0 min) (CYP3A4; CYP3A4, 5 μM, 45 min): 104 % of 0 min
% compound remaining (CYP3A4; CYP3A4, 5 μM, time not stated): > 87.5%
t1/2 (CYP3A4; CYP3A4, substrate 5 μM): >2.25 h
half-life at 5 μM (CYP3A4; human, recombinant CYP3A4 (Bactosomes), pH 7.4): > 2.25 h
